PubChem BioAssay AID1996
Values after ≈ are worked out from the molar mass of the structure shown.

Conditions: buffer; pH 7.4; 200.0 µM

Row | solubility kinetic [µg/mL] | SMILES
1 | 9 (≈ 27.4 µM) | CC1CCN(C(=O)COC(=O)CCc2c[nH]c3ccccc23)CC1
2 | 39.8 (≈ 122 µM) | Cc1ccccc1OCC(=O)NCCCNC(=O)c1ccncc1
3 | 2.1 (≈ 4.7 µM) | COc1ccc(CNC(=O)COC(=O)c2ccc(S(=O)(=O)N3CCCCC3)cc2)cc1
4 | 2.8 (≈ 8.11 µM) | O=C(Oc1ccc(C(=S)N2CCOCC2)cc1)c1ccc(F)cc1
5 | > 56.5 | Cc1cc(F)ccc1S(=O)(=O)Nc1ccc(C(=O)N2CCCCC2)cc1
6 | > 32.7 | CCOC(=O)c1nc2ccccc2c(=O)[nH]1
7 | < 0.3 | O=C(c1cccs1)N1CCN=C1SCc1ccc(F)cc1
8 | 3.5 (≈ 12.6 µM) | Cc1ccc(NC2=CC(=O)C(=O)c3ccccc32)c(C)c1
9 | 32.9 (≈ 136 µM) | O=CN1c2ccccc2CSc2ccccc21
10 | 4.1 (≈ 11 µM) | CC(C)c1ccc(NC(=O)COc2ccc(C3SCCS3)cc2)cc1
11 | 11.2 (≈ 37.3 µM) | Cc1cc(SCC(=O)N2CCCC2=O)nc2ccccc12
12 | > 40.1 | O=C(O)CCn1c(-c2ccccn2)nc2ccccc21
13 | 37.6 | Cl.OC1(c2ccccc2)CCN(Cc2ccccc2)CC1
14 | 12.2 (≈ 38.4 µM) | CC1CCCC(NC(=O)COC(=O)CCc2ccccc2)C1C (stereo unspecified)
15 | 37.5 (≈ 109 µM) | Cc1noc(C)c1S(=O)(=O)Nc1ccccc1Oc1ccccc1
16 | 2.8 (≈ 9.92 µM) | O=C(Nc1ccccc1Cl)Nc1cccnc1Cl
17 | > 51.9 | CCOC(=O)c1cc2c(n(-c3ccc(Cl)cc3)c1=O)CCCC2=O
18 | > 38.3 | O=C1C=C(NC2CCCC2)CC(c2ccccc2)C1 (stereo unspecified)
19 | > 32.3 | Cc1ccc(C(=O)NCc2ccco2)cc1
20 | 2 (≈ 6.11 µM) | Cc1ccc(C(OC(=O)c2ccco2)C(=O)NC2CCCC2)cc1 (stereo unspecified)
21 | 35.6 (≈ 122 µM) | CCC(=O)c1ccc(OCC(O)CNC2CCCC2)cc1 (stereo unspecified)
22 | > 30.5 | CCC1(CC)Cc2ccccc2C(=O)N1
23 | 4.7 (≈ 17.4 µM) | Cc1cccc2c1NC(=O)C2=Nc1ccc(Cl)cc1
24 | > 51.9 | CN(C(=O)COC(=O)c1cccc(Cl)c1)C1CCS(=O)(=O)C1 (stereo unspecified)
25 | 43.5 (≈ 131 µM) | CN1CCN(c2oc(Cc3cccc4ccccc34)nc2C#N)CC1
26 | 2.1 (≈ 6.08 µM) | O=C(NC1CCN(C(=S)Nc2ccccc2)CC1)C1CCCCC1

Row | solubility kinetic [µg/mL] | SMILES
27 | > 33.6 | C#CCn1cnc2c(oc3ccccc32)c1=O
28 | 10 (≈ 24.6 µM) | COc1ccc(-c2cc(C(=O)OCC(=O)NC3CC3)c3ccccc3n2)cc1OC
29 | 41.9 (≈ 128 µM) | O=C(NCC(O)c1ccc2ccccc2c1)c1c(F)cccc1F (stereo unspecified)
30 | 47.7 (≈ 133 µM) | COc1cc2c(cc1OC)CN(Cc1cc(OC)c(O)c(OC)c1)CC2
31 | 49.4 (≈ 142 µM) | Cc1ccc2c(CN3CCN(Cc4ccccc4)CC3)cc(=O)oc2c1
32 | 14.9 (≈ 44.3 µM) | O=C(Cc1ccc(Br)cc1)NCCc1ccc(F)cc1
33 | 41.1 (≈ 119 µM) | O=C(c1ccc(Oc2ccc(Cl)cc2)c([N+](=O)[O-])c1)N1CCCC1
34 | 54.4 | Cl.OC(CN1CCNCC1)Cn1c2ccccc2c2ccccc21 (stereo unspecified)
35 | > 52.6 | COCC(=O)N1CCCC(N(C)CCc2ccc(OC)c(OC)c2)C1 (stereo unspecified)
36 | 1.5 (≈ 5.22 µM) | Cc1cccc(N2C(=O)c3cccc4cccc(c34)C2=O)c1
37 | 49.6 (≈ 143 µM) | COc1ccc(/C=C/C(=O)O)cc1S(=O)(=O)NCc1ccccc1
38 | 52.5 (≈ 146 µM) | O=C(NCc1cccnc1)C1CC(c2cccc(Br)c2)=NO1 (stereo unspecified)
39 | 13.1 (≈ 39.2 µM) | Cc1ccc(S(=O)(=O)N2CCN(Cc3ccco3)CC2)cc1C
40 | 50 (≈ 123 µM) | CCOc1ccc(NC(=O)C(CC(=O)O)Cc2ccc(Br)cc2)cc1 (stereo unspecified)
41 | 32.6 (≈ 118 µM) | Cc1ccc2cc(NC(=O)Cc3ccccc3)ccc2n1
42 | 1 (≈ 3.66 µM) | Cc1ccc(C(=O)/C=C/c2ccc3ncccc3c2)cc1
43 | > 59 | Cc1cccc(N2CC(C(=O)Nc3ccccc3N3CCOCC3)CC2=O)c1C (stereo unspecified)
44 | 22.1 (≈ 93.5 µM) | NCC(c1ccccc1)c1c[nH]c2ccccc12 (stereo unspecified)
45 | 9.6 (≈ 31.1 µM) | Cc1cccc(C)c1NC(=O)CSC(=S)N1CCCC1
46 | 42.4 (≈ 149 µM) | COc1ccc(C(=O)NCc2ccc3c(c2)OCO3)cc1
47 | > 47.6 | Cc1ccccc1-n1c2nc(=O)n(C)c(=O)c-2cc2ccccc21
48 | > 50.6 | COc1ccc(N(CCC#N)C(=O)/C(C#N)=C\c2cccs2)cc1
49 | 1.6 (≈ 5.67 µM) | O=C(N[C@H]1CC1c1ccccc1)c1ccc([N+](=O)[O-])cc1 (stereo partly specified)
50 | 31.3 (≈ 111 µM) | C/C(=C\C(=O)c1cccnc1)Nc1ccc(C(=O)O)cc1
51 | > 44.3 | O=C(CCc1ccccc1)NCC1OCCc2ccccc21 (stereo unspecified)

The next lines start with the compound.

Row | SMILES | solubility kinetic [µg/mL]
52 | CCCCC(CC)C(=O)Nc1cc(=O)[nH]c2nc3ccccc3n12 (stereo unspecified) | 1.9 (≈ 5.82 µM)
53 | CCOC(=O)C(NC(C)=O)(NC(C)C)C(F)(F)F (stereo unspecified) | 2.2 (≈ 8.14 µM)
54 | CC(C)Nc1nc2cccnc2s1 | > 29
55 | CC(=O)c1c(C)n(-c2ccc(C)cc2C)c2ccc(O)cc12 | < 0.6
56 | CCCCC/C(=N/O)c1c(C)[nH]c2ccccc12 | 29.8 (≈ 122 µM)
57 | CC(C)(C)C(=O)O/N=C(\N)COc1cccc(Cl)c1 | 25.4 (≈ 89.2 µM)
58 | CCOC(=O)Cc1csc(NC(=O)CN2CCN(CC)CC2)n1 | 3.8 (≈ 11.2 µM)
59 | CCn1c(SCC(N)=O)nnc1-c1ccc2c(c1)OCO2 | > 46
60 | Cc1cc(C)cc(OCCCn2ccnc2)c1 | 26.4 (≈ 115 µM)
61 | Cc1cc(CNC(=S)Nc2cccc(Cl)c2Cl)nn1C | > 49.4
62 | Nc1nnc(SCC(=O)OCC(=O)NC2CCCCC2)s1 | > 49.6
63 | CCOc1ccc(NC(=O)N2CC(C)OC(C)C2)cc1 (stereo unspecified) | > 41.8
64 | CCOc1cc(/C=C2\NC(=O)NC2=O)ccc1OC(C)C(=O)O (stereo unspecified) | > 48
65 | CCC[C@H](N[C@@H](CCC)[C@H](O)c1ccccc1)[C@H](O)c1ccccc1 | 5.4 (≈ 15.8 µM)
66 | CSc1nc(-c2ccc(Cl)cc2)c(C#N)c(=O)n1C | < 0.2
67 | CCOc1ccc(NC(=O)CN(C)C(=O)c2ccncc2)cc1OCC | > 53.6
68 | COC(=O)CNc1nc(Cl)nc(NC2CCCCC2)n1 | 27.7 (≈ 92.4 µM)
69 | COc1cc(OC)cc(C(=O)NC(C(=O)NCCc2ccccn2)C(C)C)c1 (stereo unspecified) | > 57.8

Row | SMILES | solubility kinetic [µg/mL]
70 | O=C(COC(=O)CCC(=O)N1CCOCC1)Nc1ccc(Br)cc1Br | > 71.7
71 | CC1=C(C(=O)OCC2CCCCC2)C(c2cccc(O)c2)NC(=O)N1 (stereo unspecified) | 37.3 (≈ 108 µM)
72 | COC(=O)c1sccc1NC(=O)c1ccc(OC)c([N+](=O)[O-])c1 | < 0.4
73 | COc1ccc(/C=N/OCC(=O)NCC(C)C)c(OC)c1 | > 44.2
74 | CCc1nc2sc3c(Cl)ncnc3c2c2c1CCCC2 | < 0.2
75 | CCOC(=O)C1CNc2cc(S(=O)(=O)CC)ccc2O1 (stereo unspecified) | > 44.9
76 | COc1cccc(NC(=O)CN(C)CC(=O)NCC(=O)Nc2ccc(F)cc2)c1 | > 60.4
77 | Cc1cc(C)nc(NC2=NCCN2C(=S)Nc2ccc(C)c(C)c2)n1 | 2.4 (≈ 6.77 µM)
78 | Cc1ccc(CNc2ncc(-c3ccccc3)n2C)o1.O=C(O)C(=O)O | > 53.6
79 | C=CCNc1nc(C(=O)OCC(=O)c2ccc(F)cc2)cs1 | 11.2 (≈ 35 µM)
80 | Cc1ccc(CNC(=O)COC(=O)c2cc(C)oc2C)cc1 | 4.4 (≈ 14.6 µM)
81 | CCCC1=C(C(=O)OCC)C(c2ccco2)C(C#N)=C(N)O1 (stereo unspecified) | 30.3 (≈ 100 µM)
82 | O=c1[nH]c(S)c(/C=C2\C=Nc3ccccc32)s1 | 9.6 (≈ 36.9 µM)
83 | CCCOC(=O)Cn1cnc2scc(-c3ccc(OC)cc3)c2c1=O | 27.7 (≈ 77.3 µM)
84 | CCCCOC(=O)c1ccc(NC(=O)C(=O)NCCN(C)C)cc1 | 45.7 (≈ 136 µM)
85 | CCOc1ccc(Cc2noc3c2C(=O)CC(C)(C)C3)cc1OCC | 46.4 (≈ 135 µM)
86 | Cc1cnc(=O)[nH]c1SCC(=O)Nc1nccs1 | 31 (≈ 110 µM)
